# Results as given in patent US11596620B2, “Formulations with reduced oxidation” (Genentech, Inc., priority 2013, dated 2023).
# Experiments:
# mAb1 [1] = assay: Light stress of mAb1 formulation (eight hours at 250 W/m^2), papain digest RP-HPLC; type: physicochemical, human; conditions: mAb1 5 mg/mL, eight hours of light at 250 W/m^2
# Protocol: L-tryptophan (L-Trp), an antioxidant used in protein formulations, has been recently shown to be photosensitive (Igarashi et al., Anal Sci 23(8):943-8 (2007)) and to have the ability to produce H2O2 upon light exposure. […] Control vials were wrapped in aluminum foil and treated similarly. After light exposure, solutions were prepared for analysis by reverse-phase HPLC. […] Following incubation, 900 μL of the solution was combined with 100 μL of 1 M dithiothreitol (DTT) and incubated for another thirty minutes at 37° C. Samples were then run on an Agilent, Inc. 1100/1200 HPLC system (Santa Clara, Calif.) equipped with UV detection at 280 nm in conjunction with a Varian, Inc. Pursuit 3 μm, 2 mm ID×250 mm diphenyl column (Palo Alto, Calif.). Mobile Phase A was 0.1% TFA in water. Mobile Phase B was 0.1% TFA in acetonitrile. The mobile phase gradient increased linearly from 34% B at 0 minutes to 43% B at 50.0 minutes, then to 95% B at 50.1 minutes. The gradient remained at 95% B until 60.1 minutes, and then decreased linearly from 95% B to 34% B between 60.1 and 60.2 minutes. The gradient remained at 34% B until the end of the cycle at 80.2 minutes. The column temperature was 65° C., total flow rate was 0.2 mL/min, and injection volume of each sample was 6 μL. Chromatograms were then integrated for quantification of oxidation.
# mAb1 [2] = assay: Ambient light exposure of 50 mg/mL mAb1 formulations containing L-Trp (Amplex assay, RP-HPLC); type: physicochemical, human
# Text: While confirming the photosensitivity of free L-Trp under ICH light conditions, the effect of ambient light that was typically seen in laboratories was studied. Measurements using a DLM1 digital light meter in various labs indicated an average of 300 lux on a lab benchtop (with white fluorescent lighting), an average of 3000 lux in a laminar flow hood (with white fluorescent lighting) and about 10000 lux for a windowsill exposed to southeast sunlight. […] Peroxide production increased with both luminosity (300, 3000, and 10000 lux) and time (1, 3, and 7 days). […] These levels of light exposure and time were determined to be pharmaceutically relevant for drug substance handling under ambient light and temperature before fill/finish operations and potentially while inspecting drug product vials.
# [3] = Photosensitivity screening assay (H2O2 by Amplex Ultra Red after light exposure); type: physicochemical; conditions: 1 mM in 20 mM histidine acetate pH 5.5, four hours of light at 250 W/m^2
# Protocol: As a screening tool, antioxidant candidates were exposed to light for four hours at 250 W/m^2 and the resulting H2O2 formation was quantified by the Amplexassay. Specifically, antioxidants were prepared to 1 mM in 20 mM histidine acetate buffer at pH 5.5. The 1 mM antioxidant solutions were aliquoted into glass vials (2 mL/glass vial) and exposed to four hours of light at 250 W/m^2 in an Atlas SunTest CPS+ Xenon Test Instrument (Chicago, Ill.). Total UV dose was 90 watt-hours/square meter and total visible dose was 0.22 million lux hours over the 4-hour period. Control vials were wrapped in aluminum foil and treated similarly. The amount of hydrogen peroxide generated after exposure to light was measured using the Amplex® Ultra Red Assay (Invitrogen, Carlsbad, Calif.) following the manufacturer's recommended procedure. On addition of horseradish peroxidase (HRP), the dye reacted 1:1 stoichiometrically with H2O2, resulting in the production of fluorescent oxidation product resorufin. In this study, fluorescence readings were obtained using a Spectra Max M2 Micro-plate Reader (Molecular Devices, Sunnyvale, Calif.) with excitation and emission set at 560 nm and 590 nm, respectively. Final H2O2 concentrations were determined using a standard curve ranging from 0 μm to 20 μm.
# [4] = Cyclic voltammetry (CV) screening assay, oxidation potential; type: physicochemical
# Protocol: The oxidation/reduction characteristics of the compounds were investigated. Several compounds, including L-Trp and derivatives, were evaluated for the protection of Trp oxidation in proteins using cyclic voltammetry (CV) and rank ordered based on their oxidation potentials (Table 2). Specifically, the candidate antioxidants were dissolved in deionized water and then added to a 0.2 M lithium perchlorate electrolyte solution. […] Solutions were scanned from −0.10 V to +1.50 V at a scan rate of either 100 or 500 mV/sec. The analytical cell was purged for four minutes with nitrogen before scanning of each antioxidant solution. The input was a linear scan of the potential of a working electrode, and the output was measurement of the resulting current. […] Redox reactions were characterized by sharp increases or decreases in current (peaks). The potential at which an oxidation reaction occurred was referred to as the anodic peak potential (or oxidation potential), and the potential at which a reduction occurred was referred to as is the cathodic peak (or reduction) potential.
# mAb1 [5] = assay: mAb1 light stress study (16 hours at 250 W/m^2), RP-HPLC; type: physicochemical, human; conditions: 16 hours of light at 250 W/m^2
# Protocol: The fragments were reduced with DTT, and then separated and identified via Liquid Chromatography-Mass Spectrometry (LC-MS). […] Comparison of area integrated under the oxidized and native peaks was used to quantify HC Fab and Fc oxidation. […] By using the papain digest RP-HPLC method in the present study it was possible to investigate Trp residue oxidation by quantifying HC Fab oxidation, and Met residue oxidation by quantifying HC Fc oxidation.
# Antioxidants were added at 1 mM. Glass vials containing these formulations were exposed to 250 W/m^2 light in an Atlas SunTest CPS+ Xenon Test Instrument (Chicago, Ill.). Control vials were wrapped in aluminum foil and treated similarly. After light exposure, solutions were prepared for analysis by reverse-phase HPLC as described above.
# [6] = H2O2 generation by free L-Trp upon light exposure, Amplex assay; type: physicochemical
# Protocol: It was previously reported that L-Trp produced H2O2 via superoxide ion and in a sub-stoichiometric fashion while antibodies under similar conditions were producing catalytic amounts (Wentworth et al., Science 293(5536):1806-11 (2001); McCormick et al., Journal of the American Chemical Society 100:312-313 (1978)). To test the susceptibility of free L-Trp under pharmaceutically relevant conditions, such as under both ICH and ambient light conditions, formulations comprising 0.32 mM to 7.5 mM of L-Trp were exposed for 3 hours at 250 W/m^2 UV light and about 150 k lux visible light. Samples were taken and analyzed immediately via the Amplex assay to detect the amount of H2O2 generated under these conditions. […] When L-Trp was incubated with a combination of 50 mM NaN3 and 150 U superoxide dismutase (SOD) or SOD alone, significant amounts of H2O2 were still detected in the samples not containing NaN3.
structure (smiles),measurement,setting,value
"N[C@@H](Cc1c[nH]c2ccccc12)C(=O)O [L-Trp, L-tryptophan]",Fc oxidation,"mAb1 [1]; 1 mM L-Trp, reference material and foil control about 8%",over 20%
same,Fab oxidation,"mAb1 [1]; no excipient or 1 mM L-Trp, reference material and foil control about 2%",~9%
same,"Heavy chain Fab oxidation (W53) under ambient light, in words","mAb1 [2]; 50 mg/mL mAb1 with L-Trp, increasing luminosity",increased heavy chain Fab oxidation
same,% Fc oxidation in mAb1,"mAb1 [2]; 300 lux, 50 mg/mL mAb1 with L-Trp",5%
same,% Fc oxidation in mAb1,"mAb1 [2]; 10000 lux, 50 mg/mL mAb1 with L-Trp",40%
same,Hydrogen peroxide production under ambient light,"mAb1 [2]; L-Trp in formulation buffers containing 50 mg/mL mAb1, 300, 3000, 10000 lux, 1, 3, 7 days",micromolar range
same,(H2O2 produced by Compound)/(H2O2 produced by L-Trp),[3],1
same,Oxidation Potential,"[4]; anodic peak potential, glassy carbon working electrode, 0.2M lithium perchlorate",0.938 V vs Ag/AgCl
same,Oxidation Potential,"[4]; cyclic voltammetry, 0.2 M lithium perchlorate",0.938 V vs Ag/AgCl
same,Fc oxidation as multiple of the control level,mAb1 [5]; 1 mM L-Trp,7 times
same,Fab oxidation increase over the control level (mAb1 Ref Mat),mAb1 [5]; excipient 1 mM or none,over 11 fold
same,H2O2 generated upon light exposure,"[6]; 0.32 mM to 7.5 mM L-Trp, 3 hours at 250 W/m^2 UV light and about 150 k lux visible light",large quantity of H2O2
same,H2O2 generation in the presence of 50 mM sodium azide,"[6]; 3 hours at 250 W/m^2 UV light, 50 mM sodium azide",reduced greatly
